Structures can show the parent of a compound that is named as a salt.
Columns and labels:
[1] = biological target: T1, TBK1 (Homo sapiens, UniProt Q9UHD2); experiment: TBK biochemical assay; conditions: 10 point 1:4 dose response, 30 uM top concentration, 90 min at 25° C., LabChip EZ Reader II; read-out: TBK1_IC50
T1 sequence (Q9UHD2 1-729): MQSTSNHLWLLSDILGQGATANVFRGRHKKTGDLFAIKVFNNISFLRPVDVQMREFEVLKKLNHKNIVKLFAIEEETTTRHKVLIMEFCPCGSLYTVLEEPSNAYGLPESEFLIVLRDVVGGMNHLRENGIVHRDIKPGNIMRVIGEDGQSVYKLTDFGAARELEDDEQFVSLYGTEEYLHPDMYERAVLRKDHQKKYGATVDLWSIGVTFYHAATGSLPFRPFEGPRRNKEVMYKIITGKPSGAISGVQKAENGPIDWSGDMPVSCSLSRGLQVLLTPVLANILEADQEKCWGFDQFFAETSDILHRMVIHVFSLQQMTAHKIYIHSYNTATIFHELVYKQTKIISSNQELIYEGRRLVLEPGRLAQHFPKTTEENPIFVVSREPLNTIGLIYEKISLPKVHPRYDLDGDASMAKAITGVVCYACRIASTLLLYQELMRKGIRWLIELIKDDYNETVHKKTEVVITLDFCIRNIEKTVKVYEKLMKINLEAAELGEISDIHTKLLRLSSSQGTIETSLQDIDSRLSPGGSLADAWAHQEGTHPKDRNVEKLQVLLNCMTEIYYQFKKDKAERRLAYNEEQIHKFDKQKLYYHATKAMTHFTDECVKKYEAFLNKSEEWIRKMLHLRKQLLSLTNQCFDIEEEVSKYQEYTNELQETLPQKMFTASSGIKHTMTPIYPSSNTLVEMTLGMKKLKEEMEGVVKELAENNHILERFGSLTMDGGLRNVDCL
Outline: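 Read-out was a Caliper LabChip mobility-shift assay, run after a 90-min, 25 °C reaction of TBK1 with substrate and compounds, quenched with stop buffer. Control wells received staurosporine at 10 uM final.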

[2] = biological target: T2, IKKε (Homo sapiens, UniProt Q14164); experiment: IKKε biochemical assay; conditions: 10 point 1:4 dose response, 30 uM top concentration, 90 min at 25° C., LabChip EZ Reader II; read-out: IKKε_IC50
T2 sequence (Q14164 1-716): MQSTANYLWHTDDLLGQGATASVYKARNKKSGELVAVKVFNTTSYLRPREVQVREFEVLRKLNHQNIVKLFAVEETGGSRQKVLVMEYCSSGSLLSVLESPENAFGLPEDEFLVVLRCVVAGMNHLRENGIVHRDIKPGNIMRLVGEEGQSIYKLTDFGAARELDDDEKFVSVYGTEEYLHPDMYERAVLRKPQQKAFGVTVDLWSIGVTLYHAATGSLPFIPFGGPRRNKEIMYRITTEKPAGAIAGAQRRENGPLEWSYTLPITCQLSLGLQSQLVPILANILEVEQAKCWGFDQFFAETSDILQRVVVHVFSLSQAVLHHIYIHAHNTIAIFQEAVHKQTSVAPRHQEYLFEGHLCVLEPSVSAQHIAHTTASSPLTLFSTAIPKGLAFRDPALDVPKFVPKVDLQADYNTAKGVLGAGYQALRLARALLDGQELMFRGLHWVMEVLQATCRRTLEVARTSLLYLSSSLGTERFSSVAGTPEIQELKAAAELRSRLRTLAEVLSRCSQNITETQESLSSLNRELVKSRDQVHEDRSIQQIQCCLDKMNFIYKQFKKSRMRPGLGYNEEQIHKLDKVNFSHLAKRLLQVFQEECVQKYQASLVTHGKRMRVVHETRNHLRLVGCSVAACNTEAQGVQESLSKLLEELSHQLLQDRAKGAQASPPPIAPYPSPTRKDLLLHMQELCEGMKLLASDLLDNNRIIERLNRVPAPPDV
Outline: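 Mobility-shift LabChip read-out followed a 90 min, 25° C. reaction of IKKε with substrate and test compound, with DMSO held at 1% final. Reactions were ended with stop buffer. Wells with 10 uM final staurosporine defined complete inhibition, and DMSO-only wells the uninhibited level.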

SMILES | IC50 [1] [nM] | IC50 [2] [nM]
COc1cc(Nc2nccc(-c3ccc(OC4CCOCC4)c(C#N)c3)n2)cnc1N1CCN(C)CC1 [Example 54, 5-(2-[[5-methoxy-6-(4-methylpiperazin-1-yl)pyridin-3-yl]amino]pyrimidin-4-yl)-2-(oxan-4-yloxy)benzonitrile] | < 100 | < 100
COc1cc(Nc2nccc(-c3cc(C#N)c(OC4CCOCC4)cn3)n2)ncc1N1CCN(C)CC1 [Example 55, 2-(2-[[4-methoxy-5-(4-methylpiperazin-1-yl)pyridin-2-yl]amino]pyrimidin-4-yl)-5-(oxan-4-yloxy)pyridine-4-carbonitrile hydrochloride] | > 5000 | > 5000
COc1cc(Nc2nccc(-c3cc(C#N)c(OC4CCOCC4)cn3)n2)cnc1N1CCN(C)CC1 [Example 56, 2-(2-[[5-methoxy-6-(4-methylpiperazin-1-yl)pyridin-3-yl]amino]pyrimidin-4-yl)-5-(oxan-4-yloxy)pyridine-4-carbonitrile] | 100 to 1000 | 100 to 1000
COc1cc(Nc2nccc(-c3ccc(OC4CCOCC4)c(C#N)c3)n2)cnc1C1CCN(C)CC1 [Example 57, 5-(2-[[5-methoxy-6-(1-methylpiperidin-4-yl)pyridin-3-yl]amino]pyrimidin-4-yl)-2-(oxan-4-yloxy)benzonitrile] | < 100 | < 100
COc1cc(C(=O)N(C)C)cnc1Nc1nccc(-c2ccc(OC3CCOCC3)c(C#N)c2)n1 [Example 58, 6-([4-[3-cyano-4-(oxan-4-yloxy)phenyl]pyrimidin-2-yl]amino)-5-methoxy-N,N-dimethylpyridine-3-carboxamide] | 1000 to 5000 | > 5000
COc1cc(Nc2nccc(-c3ccc(OC4CCOCC4)c(C#N)c3)n2)ncc1C1CCN(C)CC1 [Example 59, 5-(2-[[4-methoxy-5-(1-methylpiperidin-4-yl)pyridin-2-yl]amino]pyrimidin-4-yl)-2-(oxan-4-yloxy)benzonitrile hydrochloride] | 100 to 1000 | < 100
COc1cc(C(=O)N(C)C)cnc1Nc1nccc(-c2ccc(NC3CCOCC3)c(C#N)c2)n1 [Example 60, 6-[(4-[3-cyano-4-[(oxan-4-yl)amino]phenyl]pyrimidin-2-yl)amino]-5-methoxy-N,N-dimethylpyridine-3-carboxamide] | > 5000 | > 5000
COc1cc(C(=O)N(C)C)ncc1Nc1nccc(-c2ccc(NC3CCOCC3)c(C#N)c2)n1 [Example 61, 5-[(4-[3-cyano-4-[(oxan-4-yl)amino]phenyl]pyrimidin-2-yl)amino]-4-methoxy-N,N-dimethylpyridine-2-carboxamide] | 100 to 1000 | 100 to 1000
COc1nc(C(=O)N(C)C)ccc1Nc1nccc(-c2ccc(NC3CCOCC3)c(C#N)c2)n1 [Example 62, 5-[(4-[3-cyano-4-[(oxan-4-yl)amino]phenyl]pyrimidin-2-yl)amino]-6-methoxy-N,N-dimethylpyridine-2-carboxamide] | < 100 | 100 to 1000
COc1nc(Nc2nccc(-c3ccc(NC4CCOCC4)c(C#N)c3)n2)ccc1C(=O)N(C)C [Example 63, 6-[(4-[3-cyano-4-[(oxan-4-yl)amino]phenyl]pyrimidin-2-yl)amino]-2-methoxy-N,N-dimethylpyridine-3-carboxamide] | < 100 | < 100
COc1nc(Nc2nccc(-c3ccc(NC4CCOCC4)c(C#N)n3)n2)ccc1C(=O)N(C)C [Example 64, 6-[(4-[6-cyano-5-[(oxan-4-yl)amino]pyridin-2-yl]pyrimidin-2-yl)amino]-2-methoxy-N,N-dimethylpyridine-3-carboxamide] | < 100 | < 100
CN1CCN(c2ccc(Nc3nccc(-c4ccc(OC5CCOCC5)c(C#N)c4)n3)cn2)CC1 [Example 66, 5-{2-[6-(4-Methyl-piperazin-1-yl)-pyridin-3-ylamino]-pyrimidin-4-yl}-2-(tetrahydro-pyran-4-yloxy)-benzonitrile] | < 100 | < 100
COc1nc(Nc2ncc(F)c(-c3ccc(OC4CCOCC4)c(C#N)c3)n2)ccc1N1CCN(C)CC1 [Example 67, 5-{5-Fluoro-2-[6-methoxy-5-(4-methyl-piperazin-1-yl)-pyridin-2-ylamino]-pyrimidin-4-yl}-2-(tetrahydro-pyran-4-yloxy)-benzonitrile] | < 100 | < 100
COc1nc(Nc2nccc(-c3ccc(OC4CCOC4)c(C#N)n3)n2)ccc1C(=O)N(C)C (stereo not drawn) [Example 68, 6-([4-[6-cyano-5-(oxolan-3-yloxy)pyridin-2-yl]pyrimidin-2-yl]amino)-2-methoxy-N,N-dimethylpyridine-3-carboxamide] | < 100 | < 100
COc1nc(Nc2nccc(-c3ccc(OC4CN(C)C4)c(C#N)c3)n2)ccc1C(=O)N(C)C [Example 69, 6-[(4-[3-cyano-4-[(1-methylazetidin-3-yl)oxy]phenyl]pyrimidin-2-yl)amino]-2-methoxy-N,N-dimethylpyridine-3-carboxamide] | 100 to 1000 | 100 to 1000
COc1nc(Nc2nccc(-c3ccc(OC4CCN(C)C4)c(C#N)c3)n2)ccc1C(=O)N(C)C (stereo not drawn) [Example 70, 6-[(4-[3-cyano-4-[(1-methylpyrrolidin-3-yl)oxy]phenyl]pyrimidin-2-yl)amino]-2-methoxy-N,N-dimethylpyridine-3-carboxamide hydrochloride] | 100 to 1000 | 100 to 1000
COc1nc(Nc2nccc(-c3ccc(OC4CCN(C)CC4)c(C#N)c3)n2)ccc1C(=O)N(C)C [Example 71, 6-[(4-[3-cyano-4-[(1-methylpiperidin-4-yl)oxy]phenyl]pyrimidin-2-yl)amino]-2-methoxy-N,N-dimethylpyridine-3-carboxamide hydrochloride] | 100 to 1000 | 100 to 1000
COc1nc(Nc2nccc(-c3ccc(OC4CCNCC4)c(C#N)c3)n2)ccc1C(=O)N(C)C [Example 72, 6-([4-[3-cyano-4-(piperidin-4-yloxy)phenyl]pyrimidin-2-yl]amino)-2-methoxy-N,N-dimethylpyridine-3-carboxamide] | < 100 | < 100
COc1nc(Nc2nccc(-c3ccc(OC4CCN(C(=O)CO)CC4)c(C#N)c3)n2)ccc1C(=O)N(C)C [Example 73, 6-[[4-(3-cyano-4-[[1-(2-hydroxyacetyl)piperidin-4-yl]oxy]phenyl)pyrimidin-2-yl]amino]-2-methoxy-N,N-dimethylpyridine-3-carboxamide] | < 100 | < 100
COc1nc(Nc2nccc(-c3ccc(O[C@H]4CCNC[C@H]4F)c(C#N)c3)n2)ccc1C(=O)N(C)C [Example 74, 6-[[4-(3-cyano-4-[[(3R,4S)-3-fluoropiperidin-4-yl]oxy]phenyl)pyrimidin-2-yl]amino]-2-methoxy-N,N-dimethylpyridine-3-carboxamide] | < 100 | < 100
COc1nc(Nc2nccc(-c3ccc(O[C@H]4CCN(C(=O)CO)C[C@H]4F)c(C#N)c3)n2)ccc1C(=O)N(C)C [Example 75, 6-[[4-(3-cyano-4-[[(3R,4S)-3-fluoro-1-(2-hydroxyacetyl)piperidin-4-yl]oxy]phenyl)pyrimidin-2-yl]amino]-2-methoxy-N,N-dimethylpyridine-3-carboxamide hydrochloride] | < 100 | < 100

Source: patent publication US20230019491A1, “PYRIMIDINE TBK/IKKe INHIBITOR COMPOUNDS AND USES THEREOF” (Merck Patent GmbH, priority 2017, published 2023)
